Test results as given in patent publication US6949682B2, “Cinnamaldehyde derivatives inhibiting growth of tumor cell and regulating cell cycle, preparations and pharmaceutical compositions thereof” (Korea Research Institute of Bioscience and Biotechnology, priority 2003, dated 2005).

Tested on: not given
Test: not given
Settings: not given

Row | Structure (SMILES) | melting point [°C]
1 | O=CC(=Cc1ccccc1OCc1ccccc1)C(C=O)=Cc1ccccc1OCc1ccccc1 [Compound 16, 2,3-bis-(2-benzyloxy-benzylidene)succinaldehyde] | 120 to 121
2 | COc1cc(C=C(C=O)C(C=O)=Cc2ccc(OC(C)=O)c(OC)c2)ccc1OC(C)=O [Compound 25, 2,3-bis-(4-acetyloxy-3-methoxy-benzylidene)succinaldehyde] | 149 to 151
3 | COc1cc(C=C(C=O)C(C=O)=Cc2ccc(OC(=O)c3ccccc3)c(OC)c2)ccc1OC(=O)c1ccccc1 [Compound 27, 2,3-bis-(4-benzoyloxy-3-methoxy-benzylidene)succinaldehyde] | 107 to 110
4 | CC(C)Oc1ccc(C=C(C=O)C(C=O)=Cc2ccc(OC(C)C)cc2)cc1 [Compound 29, 2,3-bis-(4-isopropyloxy-benzylidene)succinaldehyde] | 200 to 202

Results, then the compound that gave them:

Row | melting point [°C] | Structure (SMILES)
5 | 119 to 120 | O=CC(=Cc1ccc(OCc2ccccc2)cc1)C(C=O)=Cc1ccc(OCc2ccccc2)cc1 [Compound 31, 2,3-bis-(4-benzyloxy-benzylidene)succinaldehyde]
6 | 207 to 208 | O=CC(=Cc1ccc(OC(=O)c2ccccc2)cc1)C(C=O)=Cc1ccc(OC(=O)c2ccccc2)cc1 [Compound 32, 2,3-bis-(4-benzoyloxy-benzylidene)succinaldehyde]

Tested on: SW620 colon cancer cell
Test: Cell cycle distribution (Experimental Example 2), SW620
Format: cell-based, human
Settings: SW620, 1 μM, 48 hours
Protocol: (§1) SW620 or HCT116 as colon cancer cell was inoculated in 100 mm plate to the amount of 2×10^6 cells. Then, cinnamaldehyde derivative of the present invention (compound 16 or compound 35) was added to the plate in the concentration of 1 μM. Thereafter, the colon cancer cell was incubated for 48 hours. Trypsin was added to the plate, to separate the colon cancer cell from the plate. And 5 ml of PBS (phosphate buffer solution) was added to the plate, to prepare the cell mixture. The cell mixture was centrifuged at 1,500 rpm for 5 min for two times, to remove trypsin from the mixture. The residue was washed with PBS for two times, thus the resulting supernatant was discarded. 1 ml of PBS and 3˜5 ml of cool ethanol(70%) was added to the resulting residue. The cell was fixed by being positioned at −20° C. for 12 hours. The fixed cell was centrifuged at 1,500 rpm for 5 min and washed with the cool PBS for two times to remove residual ethanol. RNase(10 μg/ml) was added to the fixed cell, to remove RNA. And DNA of the fixed cell was dyed with PI(propidium iodide, 50 μg/ml). After the fixed cell was positioned at 37° C. for 30 min, cell cycles of 20,000 cells were measured by using Becton-Dickinson FACS caliber (San Jose, Calif., USA).
(§2) For control group, the same procedure was accomplished except that DMSO was used in place of the cinnamaldehyde derivative.

Row | Structure (SMILES) | Amount of cell (%) G0-G1 [%] | Amount of cell (%) G2-M [%] | Amount of cell (%) S [%]
7 | O=CC(=Cc1ccccc1OCc1ccccc1)C(C=O)=Cc1ccccc1OCc1ccccc1 [Compound 16, 2,3-bis-(2-benzyloxy-benzylidene)succinaldehyde] | 6.64 | 80.21 | 13.15

Tested on: SW620 colon cancer cell
Test: Growth inhibition of SW620 colon cancer cell (GI50)
Format: cell-based, human
Settings: Homo sapiens, SW-620; concentration at which growth of SW620 colon cancer cell was inhibited to the 50%
Protocol: (§3) Colon cancer cell of human SW620(ATCC) or HCT116 (ATCC) was transferred to T25 flask(culture 7.5 ml) by RPMI1640 (Gibco/BR) medium or DMEM medium (Gibco/BR) containing 10% FBS (fetal bovine serum), respectively. Thereafter the cell was incubated for 12 hours at 37° C. in incubator. After the cell was incubated for 12 hours, 7.5 μl of DMSO was added to a culture used as control group, for the final concentration to be 0.1%. In order to use in experiment, samples of various concentrations were prepared by dissolving the cinnamaldehyde derivatives of the present invention in DMSO. 7.5 μl of the prepared samples was added to a culture used as experimental group. Cell of control or experimental group was incubated for 48 hours.
(§4) HCT116 GI50 (μM) and SW620 GI50 (μM) mean to be the concentrations at which growth of HCT116 and SW620 colon cancer cell was inhibited to the 50%, respectively.

Row | Structure (SMILES) | GI50 [µM]
8 | O=CC(=Cc1ccccc1OCc1ccccc1)C(C=O)=Cc1ccccc1OCc1ccccc1 [Compound 16, 2,3-bis-(2-benzyloxy-benzylidene)succinaldehyde] | 0.63
9 | COc1cc(C=C(C=O)C(C=O)=Cc2ccc(OC(C)=O)c(OC)c2)ccc1OC(C)=O [Compound 25, 2,3-bis-(4-acetyloxy-3-methoxy-benzylidene)succinaldehyde] | 66.3
10 | COc1cc(C=C(C=O)C(C=O)=Cc2ccc(OC(=O)c3ccccc3)c(OC)c2)ccc1OC(=O)c1ccccc1 [Compound 27, 2,3-bis-(4-benzoyloxy-3-methoxy-benzylidene)succinaldehyde] | 13.9
11 | CC(C)Oc1ccc(C=C(C=O)C(C=O)=Cc2ccc(OC(C)C)cc2)cc1 [Compound 29, 2,3-bis-(4-isopropyloxy-benzylidene)succinaldehyde] | 1.06

The remaining lines, values ahead:

Row | GI50 [µM] | Structure (SMILES)
12 | 7.38 | O=CC(=Cc1ccc(OCc2ccccc2)cc1)C(C=O)=Cc1ccc(OCc2ccccc2)cc1 [Compound 31, 2,3-bis-(4-benzyloxy-benzylidene)succinaldehyde]
13 | 5.97 | O=CC(=Cc1ccc(OC(=O)c2ccccc2)cc1)C(C=O)=Cc1ccc(OC(=O)c2ccccc2)cc1 [Compound 32, 2,3-bis-(4-benzoyloxy-benzylidene)succinaldehyde]

Tested on: HCT116 colon cancer cell
Test: Cell cycle distribution (Experimental Example 2), HCT116
Format: cell-based, human
Settings: HCT116, 1 μM, 48 hours
Protocol: as §1, §2

Row | Structure (SMILES) | Amount of cell (%) G0-G1 [%] | Amount of cell (%) G2-M [%] | Amount of cell (%) S [%]
14 | O=CC(=Cc1ccccc1OCc1ccccc1)C(C=O)=Cc1ccccc1OCc1ccccc1 [Compound 16, 2,3-bis-(2-benzyloxy-benzylidene)succinaldehyde] | 22.36 | 43.29 | 34.35

Same assay, conditions: HCT116 and SW620, 1 μM, summary of table 3

Row | Structure (SMILES) | Holding of cancer cell in stage G2/M (in words)
15 | O=CC(=Cc1ccccc1OCc1ccccc1)C(C=O)=Cc1ccccc1OCc1ccccc1 [Compound 16, 2,3-bis-(2-benzyloxy-benzylidene)succinaldehyde] | held a cancer cell in the stage G2/M

Tested on: SW620 colon cancer cell
Test: Cell cycle analysis (Experimental Example 1), SW620
Format: cell-based, human
Settings: SW620, 1 μM, 48 hours, percentage of cells in G2/M
Protocol: as §3
(§5) For cell cycle analysis, incubated cell was removed from medium. Thereafter the incubated cell was separated from the flask by trypsin. Thus the cell was centrifuged at 300 g for 5 min. The cell was washed with phosphate buffer solution (PBS) to remove the residue medium from the cell. 3 ml of ethanol (70%) was added to the cell. The cell was fixed by being positioned at −20° C. for 12 hours. The fixed cell was centrifuged at 300 g for 3 min and washed with the cold PBS for two times to remove residual ethanol. The cell solution prepared by adding 500 μl of PBS to the cell was well mixed to produce the homogeneous state. 100 μg/ml RNase A 50 μl was added to the cell solution, thereafter the resulting cell solution was positioned at 37° C. for 30 min. The chromosomal DNA was stained by further adding 1 mg/ml propidium iodide (soluble in PBS) thereto.
(§6) Distribution of cell cycle of 20,000 stained cells were measured by using Becton-Dickinson FACS caliber (San Jose, Calif., USA).

Row | Structure (SMILES) | G2/M at 1 μM(%) SW620 [%]
16 | O=CC(=Cc1ccccc1OCc1ccccc1)C(C=O)=Cc1ccccc1OCc1ccccc1 [Compound 16, 2,3-bis-(2-benzyloxy-benzylidene)succinaldehyde] | 80
17 | COc1cc(C=C(C=O)C(C=O)=Cc2ccc(OC(C)=O)c(OC)c2)ccc1OC(C)=O [Compound 25, 2,3-bis-(4-acetyloxy-3-methoxy-benzylidene)succinaldehyde] | 48
18 | COc1cc(C=C(C=O)C(C=O)=Cc2ccc(OC(=O)c3ccccc3)c(OC)c2)ccc1OC(=O)c1ccccc1 [Compound 27, 2,3-bis-(4-benzoyloxy-3-methoxy-benzylidene)succinaldehyde] | 77
19 | CC(C)Oc1ccc(C=C(C=O)C(C=O)=Cc2ccc(OC(C)C)cc2)cc1 [Compound 29, 2,3-bis-(4-isopropyloxy-benzylidene)succinaldehyde] | 47
20 | O=CC(=Cc1ccc(OCc2ccccc2)cc1)C(C=O)=Cc1ccc(OCc2ccccc2)cc1 [Compound 31, 2,3-bis-(4-benzyloxy-benzylidene)succinaldehyde] | 62
21 | O=CC(=Cc1ccc(OC(=O)c2ccccc2)cc1)C(C=O)=Cc1ccc(OC(=O)c2ccccc2)cc1 [Compound 32, 2,3-bis-(4-benzoyloxy-benzylidene)succinaldehyde] | 52

Tested on: HCT116 colon cancer cell
Test: Growth inhibition of HCT116 colon cancer cell (GI50)
Format: cell-based, human
Settings: Homo sapiens, HCT-116; concentration at which growth of HCT116 colon cancer cell was inhibited to the 50%
Protocol: as §3, §4

Row | Structure (SMILES) | GI50 [µM]
22 | O=CC(=Cc1ccccc1OCc1ccccc1)C(C=O)=Cc1ccccc1OCc1ccccc1 [Compound 16, 2,3-bis-(2-benzyloxy-benzylidene)succinaldehyde] | 1.41
23 | COc1cc(C=C(C=O)C(C=O)=Cc2ccc(OC(C)=O)c(OC)c2)ccc1OC(C)=O [Compound 25, 2,3-bis-(4-acetyloxy-3-methoxy-benzylidene)succinaldehyde] | 17.7
24 | COc1cc(C=C(C=O)C(C=O)=Cc2ccc(OC(=O)c3ccccc3)c(OC)c2)ccc1OC(=O)c1ccccc1 [Compound 27, 2,3-bis-(4-benzoyloxy-3-methoxy-benzylidene)succinaldehyde] | 2.95
25 | CC(C)Oc1ccc(C=C(C=O)C(C=O)=Cc2ccc(OC(C)C)cc2)cc1 [Compound 29, 2,3-bis-(4-isopropyloxy-benzylidene)succinaldehyde] | 0.82

Now from value to compound:

Row | GI50 [µM] | Structure (SMILES)
26 | 3.58 | O=CC(=Cc1ccc(OCc2ccccc2)cc1)C(C=O)=Cc1ccc(OCc2ccccc2)cc1 [Compound 31, 2,3-bis-(4-benzyloxy-benzylidene)succinaldehyde]
27 | 11.9 | O=CC(=Cc1ccc(OC(=O)c2ccccc2)cc1)C(C=O)=Cc1ccc(OC(=O)c2ccccc2)cc1 [Compound 32, 2,3-bis-(4-benzoyloxy-benzylidene)succinaldehyde]

Tested on: HCT116 colon cancer cell
Test: Cell cycle analysis (Experimental Example 1), HCT116
Format: cell-based, human
Settings: HCT116, 1 μM, 48 hours, percentage of cells in G2/M
Protocol: as §3, §5, §6

Row | Structure (SMILES) | G2/M at 1 μM(%) HCT116 [%]
28 | O=CC(=Cc1ccccc1OCc1ccccc1)C(C=O)=Cc1ccccc1OCc1ccccc1 [Compound 16, 2,3-bis-(2-benzyloxy-benzylidene)succinaldehyde] | 43
29 | COc1cc(C=C(C=O)C(C=O)=Cc2ccc(OC(C)=O)c(OC)c2)ccc1OC(C)=O [Compound 25, 2,3-bis-(4-acetyloxy-3-methoxy-benzylidene)succinaldehyde] | 43
30 | COc1cc(C=C(C=O)C(C=O)=Cc2ccc(OC(=O)c3ccccc3)c(OC)c2)ccc1OC(=O)c1ccccc1 [Compound 27, 2,3-bis-(4-benzoyloxy-3-methoxy-benzylidene)succinaldehyde] | 79
31 | CC(C)Oc1ccc(C=C(C=O)C(C=O)=Cc2ccc(OC(C)C)cc2)cc1 [Compound 29, 2,3-bis-(4-isopropyloxy-benzylidene)succinaldehyde] | 49
32 | O=CC(=Cc1ccc(OCc2ccccc2)cc1)C(C=O)=Cc1ccc(OCc2ccccc2)cc1 [Compound 31, 2,3-bis-(4-benzyloxy-benzylidene)succinaldehyde] | 64
33 | O=CC(=Cc1ccc(OC(=O)c2ccccc2)cc1)C(C=O)=Cc1ccc(OC(=O)c2ccccc2)cc1 [Compound 32, 2,3-bis-(4-benzoyloxy-benzylidene)succinaldehyde] | 56
